Broadly, the mass density is mass per unit of volume.

In the NIST ThermoML archive (doi:10.1016/j.jct.2015.03.012) one finds mass density data, which are given here for four compounds.

± gives the expanded uncertainty stated by the source.

Series [1] is described as follows: mn = molality of the nth substance listed, in mol/kg. The following applies: 298.15 K, 101.3 kPa, Liquid, Vibrating tube method.
Series [2] in a line: wn = mass fraction of the nth substance listed. To be noted: 298.15 K, 101.3 kPa, Liquid, Vibrating tube method.

Turning to `OCC1CO1` (stereo not drawn) [2,3-epoxy-1-propanol] + O, in series [1] (m1 = 0.4019), the mass density was 1001.85 ± 0.44 kg/m3.

Turning to `OC[C@@H]1CO1` [R-(+)-glycidol] + O, the mass density in series [1] (m1 = 0.402) is recorded as 1002.68 ± 0.27 kg/m3.

Turning to `OC[C@H]1CO1` [S-(-)-glycidol] + O, the mass density in series [1] (m1 = 0.4554) was 1002.79 ± 0.27 kg/m3.

On to `CN(C)C=O` [dimethylformamide] + O, for which the mass density in series [2] (w1 = 0.05) turned out to be 996.463 ± 0.11 kg/m3; in series [2] (w1 = 0.1001), 996.232 ± 0.11 kg/m3; in series [2] (w1 = 0.15), 996.24 ± 0.11 kg/m3; in series [2] (w1 = 0.2001) it was 996.402 ± 0.11 kg/m3; in series [2] (w1 = 0.2502) it was 996.649 ± 0.11 kg/m3.
